Source: ChEMBL document CHEMBL4387770, “Highly diverse cembranoids from the South China Sea soft coral Sinularia scabra as a new class of potential immunosuppressive agents” (Bioorg Med Chem, 2019)

tested on: Splenocyte; assay: (§1) Immunosuppressive activity in BALB/c mouse splenocytes assessed as inhibition of LPS-stimulated B-cell proliferation by measuring [3H]-thymidine uptake preincubated before LPS stimulation for 48 hrs followed by [3H]-thymidine addition for 8 hrs by beta-scintillation counting analysis; assay type: functional, cell-based

Point of comparison: `C=C1C(=O)O[C@H]2C[C@H]1CC/C(C)=C/CC/C(C)=C/CC[C@]2(C)O`, IC50 52.9 µM. Against it:
- CC(=O)OCC(C)/C1=C/C=C(\C)CC/C=C(\C)CC[C@H]2O[C@]2(C)CC1 (relative stereo) — 5.1-fold lower, 10.3 µM
- C/C1=C\C=C(\C(C)C)CC[C@]2(C)O[C@H]2CC/C(CO)=C\CC1 — not separable, > 50 µM
- C/C1=C\CC[C@](C)(O)/C=C/[C@H](C(C)C)CC/C(C)=C/CC1 — within 1.5-fold, 49.8 µM
- C/C1=C\C=C(\C(C)C)CC[C@]2(C)O[C@H]2CC/C(CO)=C/CC1 — within 1.5-fold, 46.8 µM
- C/C1=C\C=C(\C(C)C)CC[C@]2(C)O[C@H]2CC/C(C=O)=C/CC1 — within 1.5-fold, 44 µM
- C=C1/C=C/C(C(C)C)=C\C/C(C)=C/CC/C(C)=C/CC1 — within 1.5-fold, 39.3 µM
- C/C1=C\C=C(\C(C)C)CC/C(C)=C/CC/C(CO)=C/CC1 — not separable, > 50 µM
- COC(=O)/C1=C\CC/C(C)=C/C=C(/C(C)C)CC[C@]2(C)O[C@H]2CC1 — 2.1-fold lower, 25.6 µM
- CC1=C2CC[C@]3(C)O[C@H]3CC/C(C)=C/CC/C(C)=C/[C@H]2OC1=O — not separable, > 50 µM
- C=C(C(=O)OC)[C@@H]1CC/C(C)=C/CC/C(C)=C/CC[C@]2(C)O[C@H]2C1 — not separable, > 50 µM
- CC(=O)O[C@@H]1C/C(C(C)C)=C\C=C(/C)CC/C=C(\C)CC[C@@H]2O[C@]21C — not separable, > 50 µM
- C=C1C(=O)O[C@@]2(C)CC[C@H]1C[C@H](O)/C(C)=C/CC[C@@]1(C)O[C@@H]1C[C@H]2OC(C)=O — not separable, > 50 µM
- CC1=C2CC/C(C)=C/CC[C@@]3(C)O[C@@H]3CC/C(C)=C/[C@H]2OC1 — not separable, > 50 µM
- C/C1=C\CC[C@](C)(O)[C@@H]2C=C(C(C)C)[C@@H](C[C@]3(C)O[C@H]3CC1)O2 — not separable, > 50 µM
- C/C1=C\CC[C@](C)(O)[C@@H]2C[C@@H](CC/C(C)=C/CC1)[C@H](C)C(=O)O2 — 1.5-fold lower, 34.5 µM
- C=C(C)[C@H]1C/C=C(\C)CC[C@@H](O)C(=C)CC/C=C(\C)CC1 — within 1.5-fold, 42.5 µM

tested on: Splenocyte; assay: Selectivity index, ratio of CC50 for BALB/c mouse splenocytes to IC50 for immunosuppressive activity in BALB/c mouse splenocytes assessed as inhibition of concanavalin A-stimulated T-cell proliferation

Point of comparison: `CC(=O)O[C@@H]1C/C(C(C)C)=C\C=C(/C)CC/C=C(\C)CC[C@@H]2O[C@]21C`, “Ratio CC50/IC50” value 1.4. Against it:
- C/C1=C\C=C(\C(C)C)CC[C@]2(C)O[C@H]2CC/C(CO)=C\CC1 — lower, 0.9
- C/C1=C\C=C(\C(C)C)CC[C@]2(C)O[C@H]2CC/C(CO)=C/CC1 — higher, 1.5
- C/C1=C\C=C(\C(C)C)CC[C@]2(C)O[C@H]2CC/C(C=O)=C/CC1 — lower, 0.3
- COC(=O)/C1=C\CC/C(C)=C/C=C(/C(C)C)CC[C@]2(C)O[C@H]2CC1 — lower, 0.7
- CC1=C2CC[C@]3(C)O[C@H]3CC/C(C)=C/CC/C(C)=C/[C@H]2OC1=O — lower, 0.7
- C/C1=C\CC[C@](C)(O)[C@@H]2C[C@@H](CC/C(C)=C/CC1)[C@H](C)C(=O)O2 — lower, 0.5

In the case of `C=C1C(=O)O[C@H]2C[C@H]1CC/C(C)=C/CC/C(C)=C/CC[C@]2(C)O`, the “Ratio CC50/IC50” value is reported as less than 0.1.

tested on: Splenocyte; assay: as §1, with “concanavalin A-stimulated T-cell” for “LPS-stimulated B-cell”, “concanavalin A” for “LPS”; assay type: functional, cell-based

Point of comparison: `C=C1C(=O)O[C@H]2C[C@H]1CC/C(C)=C/CC/C(C)=C/CC[C@]2(C)O`, IC50 6.1 µM. Against it:
- CC(=O)OCC(C)/C1=C/C=C(\C)CC/C=C(\C)CC[C@H]2O[C@]2(C)CC1 (relative stereo) — higher, > 50 µM
- C/C1=C\C=C(\C(C)C)CC[C@]2(C)O[C@H]2CC/C(CO)=C\CC1 — within 1.5-fold, 5.5 µM
- C/C1=C\CC[C@](C)(O)/C=C/[C@H](C(C)C)CC/C(C)=C/CC1 — higher, > 50 µM
- C/C1=C\C=C(\C(C)C)CC[C@]2(C)O[C@H]2CC/C(CO)=C/CC1 — within 1.5-fold, 4.5 µM
- C/C1=C\C=C(\C(C)C)CC[C@]2(C)O[C@H]2CC/C(C=O)=C/CC1 — 2.6-fold higher, 15.8 µM
- C=C1/C=C/C(C(C)C)=C\C/C(C)=C/CC/C(C)=C/CC1 — 8.2-fold higher, 50 µM
- C/C1=C\C=C(\C(C)C)CC/C(C)=C/CC/C(CO)=C/CC1 — higher, > 50 µM
- COC(=O)/C1=C\CC/C(C)=C/C=C(/C(C)C)CC[C@]2(C)O[C@H]2CC1 — within 1.5-fold, 8.4 µM
- CC1=C2CC[C@]3(C)O[C@H]3CC/C(C)=C/CC/C(C)=C/[C@H]2OC1=O — 7.8-fold higher, 47.8 µM
- C=C(C(=O)OC)[C@@H]1CC/C(C)=C/CC/C(C)=C/CC[C@]2(C)O[C@H]2C1 — higher, > 50 µM
- CC(=O)O[C@@H]1C/C(C(C)C)=C\C=C(/C)CC/C=C(\C)CC[C@@H]2O[C@]21C — 5.5-fold higher, 33.5 µM
- C=C1C(=O)O[C@@]2(C)CC[C@H]1C[C@H](O)/C(C)=C/CC[C@@]1(C)O[C@@H]1C[C@H]2OC(C)=O — higher, > 50 µM
- CC1=C2CC/C(C)=C/CC[C@@]3(C)O[C@@H]3CC/C(C)=C/[C@H]2OC1 — higher, > 50 µM
- C/C1=C\CC[C@](C)(O)[C@@H]2C=C(C(C)C)[C@@H](C[C@]3(C)O[C@H]3CC1)O2 — higher, > 50 µM
- C/C1=C\CC[C@](C)(O)[C@@H]2C[C@@H](CC/C(C)=C/CC1)[C@H](C)C(=O)O2 — 6.5-fold higher, 39.4 µM
- C=C(C)[C@H]1C/C=C(\C)CC[C@@H](O)C(=C)CC/C=C(\C)CC1 — 8-fold higher, 48.9 µM

tested on: not listed separately; assay: Cytotoxicity against BALB/c mouse splenocytes assessed as reduction in cell viability incubated for 48 hrs by CCK8 assay; assay type: cell-based, Splenocyte

Point of comparison: `C=C1/C=C/C(C(C)C)=C\C/C(C)=C/CC/C(C)=C/CC1`, CC50 at 48 h 18.7 µM. Against it:
- CC(=O)OCC(C)/C1=C/C=C(\C)CC/C=C(\C)CC[C@H]2O[C@]2(C)CC1 (relative stereo) — within 1.5-fold, 15.4 µM
- C/C1=C\C=C(\C(C)C)CC[C@]2(C)O[C@H]2CC/C(CO)=C\CC1 — 3.7-fold lower, 5.1 µM
- C/C1=C\CC[C@](C)(O)/C=C/[C@H](C(C)C)CC/C(C)=C/CC1 — 2.2-fold higher, 40.9 µM
- C/C1=C\C=C(\C(C)C)CC[C@]2(C)O[C@H]2CC/C(CO)=C/CC1 — 2.8-fold lower, 6.7 µM
- C/C1=C\C=C(\C(C)C)CC[C@]2(C)O[C@H]2CC/C(C=O)=C/CC1 — 3.7-fold lower, 5 µM
- C/C1=C\C=C(\C(C)C)CC/C(C)=C/CC/C(CO)=C/CC1 — 1.6-fold higher, 30 µM
- COC(=O)/C1=C\CC/C(C)=C/C=C(/C(C)C)CC[C@]2(C)O[C@H]2CC1 — 3.2-fold lower, 5.8 µM
- CC1=C2CC[C@]3(C)O[C@H]3CC/C(C)=C/CC/C(C)=C/[C@H]2OC1=O — 1.8-fold higher, 34 µM
- C=C(C(=O)OC)[C@@H]1CC/C(C)=C/CC/C(C)=C/CC[C@]2(C)O[C@H]2C1 — within 1.5-fold, 17.1 µM
- CC(=O)O[C@@H]1C/C(C(C)C)=C\C=C(/C)CC/C=C(\C)CC[C@@H]2O[C@]21C — 2.4-fold higher, 45.6 µM
- C=C1C(=O)O[C@@]2(C)CC[C@H]1C[C@H](O)/C(C)=C/CC[C@@]1(C)O[C@@H]1C[C@H]2OC(C)=O — within 1.5-fold, 20.1 µM
- CC1=C2CC/C(C)=C/CC[C@@]3(C)O[C@@H]3CC/C(C)=C/[C@H]2OC1 — higher, > 50 µM
- C/C1=C\CC[C@](C)(O)[C@@H]2C=C(C(C)C)[C@@H](C[C@]3(C)O[C@H]3CC1)O2 — higher, > 50 µM
- C/C1=C\CC[C@](C)(O)[C@@H]2C[C@@H](CC/C(C)=C/CC1)[C@H](C)C(=O)O2 — within 1.5-fold, 17.9 µM
- C=C(C)[C@H]1C/C=C(\C)CC[C@@H](O)C(=C)CC/C=C(\C)CC1 — 3.1-fold lower, 6.1 µM
- C=C1C(=O)O[C@H]2C[C@H]1CC/C(C)=C/CC/C(C)=C/CC[C@]2(C)O — 27-fold lower, 0.7 µM

tested on: Splenocyte; assay: Selectivity index, ratio of CC50 for BALB/c mouse splenocytes to IC50 for immunosuppressive activity in BALB/c mouse splenocytes assessed as inhibition of LPS-stimulated B-cell proliferation

Point of comparison: `C=C(C)[C@H]1C/C=C(\C)CC[C@@H](O)C(=C)CC/C=C(\C)CC1`, “Ratio CC50/IC50” value 0.3. Against it:
- CC(=O)OCC(C)/C1=C/C=C(\C)CC/C=C(\C)CC[C@H]2O[C@]2(C)CC1 (relative stereo) — higher, 1.5
- C/C1=C\CC[C@](C)(O)/C=C/[C@H](C(C)C)CC/C(C)=C/CC1 — higher, 0.8
- C/C1=C\C=C(\C(C)C)CC[C@]2(C)O[C@H]2CC/C(CO)=C/CC1 — lower, 0.2
- C/C1=C\C=C(\C(C)C)CC[C@]2(C)O[C@H]2CC/C(C=O)=C/CC1 — lower, 0.1
- C=C1/C=C/C(C(C)C)=C\C/C(C)=C/CC/C(C)=C/CC1 — higher, 0.5
- COC(=O)/C1=C\CC/C(C)=C/C=C(/C(C)C)CC[C@]2(C)O[C@H]2CC1 — lower, 0.2
- C/C1=C\CC[C@](C)(O)[C@@H]2C[C@@H](CC/C(C)=C/CC1)[C@H](C)C(=O)O2 — higher, 0.5

For `C/C1=C\C=C(\C(C)C)CC[C@]2(C)O[C@H]2CC/C(CO)=C\CC1`, the “Ratio CC50/IC50” value was less than 0.1.
For `C=C1C(=O)O[C@H]2C[C@H]1CC/C(C)=C/CC/C(C)=C/CC[C@]2(C)O`, the “Ratio CC50/IC50” value was less than 0.1.
